Here are results for one compound from patent US8383641B2, “Aryloxyethylamine compounds suitable for treating disorders that respond to modulation of the dopamine D3 receptor” (Abbott GmbH & Co. KG, priority 2006, dated 2013).

Experiment [1] concerns the target T1, human dopamine D3 receptors (Homo sapiens, UniProt P35462).
T1 construct: expressed in transfected cells; host or cells: HEK-293
Kind of experiment: Dopamine D3 receptor binding, [125I]-iodosulpride displacement. The conditions noted are these: membranes of HEK-293 cells expressing human D3 receptor; 0.1 nM [125I]-iodosulpride. The method, then:
(§1) The substance to be tested was either dissolved in methanol/Chremophor® (BASF-AG) or in dimethyl sulfoxide and then diluted with water to the desired concentration.
(§2) Each assay mixture was run in triplicate.
The incubation buffer contained 50 mM tris, 120 mM NaCl, 5 mM KCl, 2 mM CaCl2, 2 mM MgCl2 and 0.1% bovine serum albumin, 10 μM quinolone and 0.1% ascorbic acid (prepared fresh daily). The buffer was adjusted to pH 7.4 with HCl.
(§3) After having been incubated at 25° C. for 60 minutes, the assay mixtures were filtered through a Whatman GF/B glass fiber filter under vacuum using a cell collecting device. The filters were transferred to scintillation viols using a filter transfer system. After 4 ml of Ultima Gold® (Packard) have been added, the samples were shaken for one hour and the radioactivity was then counted in a Beta-Counter (Packard, Tricarb 2000 or 2200CA). The cpm values were converted into dpm using a standard quench series and the program belonging to the instrument.
(§4) The inhibition curves were analyzed by means of iterative nonlinear regression analysis using the Statistical Analysis System (SAS) which is similar to the “LIGAND” program described by Munson and Rodbard.

Experiment [2] concerns the target T2, human dopamine D2L receptors (long isoform) (Homo sapiens, UniProt P14416).
T2 construct: expressed in transfected cells; host or cells: HEK-293
Put plainly: Dopamine D2L receptor binding, [125I] iodospiperone displacement. The following applies: selectivity ratio of receptor binding constants, D2L versus D3. Here is the method: as §1, §2
The incubation buffer contained 50 mM tris, 120 mM NaCl, 5 mM KCl, 2 mM CaCl2, 2 mM MgCl2 and 0.1% bovine serum albumin. The buffer was adjusted to pH 7.4 with HCl.
as §3, §4

T1 sequence (P35462 whole entry): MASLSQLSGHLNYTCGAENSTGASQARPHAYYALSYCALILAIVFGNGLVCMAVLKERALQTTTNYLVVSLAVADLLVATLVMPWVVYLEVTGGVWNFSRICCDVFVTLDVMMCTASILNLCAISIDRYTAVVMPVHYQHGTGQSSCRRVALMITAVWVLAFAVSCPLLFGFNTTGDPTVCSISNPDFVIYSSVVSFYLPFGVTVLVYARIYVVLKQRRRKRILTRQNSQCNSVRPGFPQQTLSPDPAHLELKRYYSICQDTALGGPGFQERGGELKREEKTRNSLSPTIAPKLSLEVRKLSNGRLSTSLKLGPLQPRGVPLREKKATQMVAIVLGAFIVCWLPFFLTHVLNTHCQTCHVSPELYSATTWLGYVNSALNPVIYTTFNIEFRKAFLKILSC
T2 sequence (P14416 whole entry, canonical isoform): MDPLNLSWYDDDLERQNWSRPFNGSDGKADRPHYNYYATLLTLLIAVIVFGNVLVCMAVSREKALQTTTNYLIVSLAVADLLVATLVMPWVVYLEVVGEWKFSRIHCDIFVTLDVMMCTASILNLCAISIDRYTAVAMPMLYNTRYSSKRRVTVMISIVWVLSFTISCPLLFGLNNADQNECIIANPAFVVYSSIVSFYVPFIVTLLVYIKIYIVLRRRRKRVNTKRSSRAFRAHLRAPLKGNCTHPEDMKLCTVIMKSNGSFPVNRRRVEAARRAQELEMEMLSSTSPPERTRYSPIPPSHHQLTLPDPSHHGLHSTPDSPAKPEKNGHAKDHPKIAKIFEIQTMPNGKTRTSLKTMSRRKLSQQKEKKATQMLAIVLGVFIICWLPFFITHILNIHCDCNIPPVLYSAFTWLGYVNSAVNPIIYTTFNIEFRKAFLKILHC

Broadly, the Ki is a measure of affinity in units of concentration, obtained from inhibition or displacement. On to `CCCN1CCC(Oc2ccc(NS(=O)(=O)c3ccc(C(C)C)cc3)c(C)n2)C1.O=C(O)/C=C/C(=O)O` (centres unmarked) [Example 61, 4-Isopropyl-N-{2-methyl-6-[(1-propylpyrrolidin-3-yl)oxy]pyridin-3-yl}benzenesulfonamide (2E)-but-2-enedioate], for which, in experiment [1], the Ki was in the range of 1 to 10 nM. Further, the “Ki(D2)*/Ki(D3)*” value in experiment [2] was “+ (between 10 and 50)”.
